Each structure is given as a SMILES string. ± gives the expanded uncertainty stated by the source.

The conditions of the series: 101.33 kPa, Liquid, Vibrating tube method.

In the case of `CCCC[n+]1ccccc1.O=S(=O)([N-]S(=O)(=O)C(F)(F)F)C(F)(F)F` [1-butylpyridinium bis[(trifluoromethyl)sulfonyl]imide], the mass density is, setting by setting: (303.15 K) 1449.8 ± 2.1 kg/m3; (313.15 K) 1440.3 ± 2.1 kg/m3; (323.15 K) 1431.1 ± 2.1 kg/m3; (333.15 K) 1421.9 ± 2.1 kg/m3.
The matching figures for `CCCC[n+]1ccccc1.N#C[N-]C#N` [1-butylpyridinium dicyanamide]: 1074.8 ± 2 kg/m3, 1069.7 ± 2 kg/m3, 1064.4 ± 2 kg/m3 and 1059.5 ± 2 kg/m3.

The values are drawn from the NIST ThermoML archive (doi:10.1016/j.jct.2018.08.038).
